From patent publication US10794932B2, “Biosensor for the detection of a biological target, and method for manufacturing the same” (The Governing Council of The University of Toronto, priority 2016, dated 2020) come the findings set out here.

In one assay the target is T1, rmTLR1 (Mus musculus, UniProt Q9EPQ1).
T1 construct: purchased R&D Systems RDS1476TR050
T1 sequence (Q9EPQ1 26-795): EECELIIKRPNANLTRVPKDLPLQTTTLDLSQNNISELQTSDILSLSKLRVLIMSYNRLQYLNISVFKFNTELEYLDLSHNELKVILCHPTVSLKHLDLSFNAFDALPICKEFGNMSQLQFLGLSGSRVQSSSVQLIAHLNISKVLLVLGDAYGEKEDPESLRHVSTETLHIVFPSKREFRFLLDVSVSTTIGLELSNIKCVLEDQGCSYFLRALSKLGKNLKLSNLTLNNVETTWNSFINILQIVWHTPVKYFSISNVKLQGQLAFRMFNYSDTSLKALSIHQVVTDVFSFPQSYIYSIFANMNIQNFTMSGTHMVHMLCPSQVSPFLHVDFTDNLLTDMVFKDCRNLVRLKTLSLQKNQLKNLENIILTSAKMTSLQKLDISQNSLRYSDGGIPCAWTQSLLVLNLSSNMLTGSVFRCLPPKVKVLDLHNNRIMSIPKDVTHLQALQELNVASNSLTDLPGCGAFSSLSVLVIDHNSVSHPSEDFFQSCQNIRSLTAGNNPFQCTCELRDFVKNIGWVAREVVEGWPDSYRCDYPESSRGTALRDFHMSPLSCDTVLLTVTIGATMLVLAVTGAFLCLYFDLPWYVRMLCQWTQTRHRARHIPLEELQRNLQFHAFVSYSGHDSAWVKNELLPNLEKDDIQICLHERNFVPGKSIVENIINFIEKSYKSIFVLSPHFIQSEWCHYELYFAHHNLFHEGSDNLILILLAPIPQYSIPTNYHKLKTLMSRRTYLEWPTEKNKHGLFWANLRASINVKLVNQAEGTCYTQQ
Briefly: Label-free TLR1 sensor, EIS detection of Pam3CSK4 (Example 7). It counts as binding. To be noted: for delta Rct %: 20 minutes; for Rct: before immersion 10250. The method, then: (§1) TLR sensors were prepared using fresh, cleaned gold electrodes. The electrodes were immersed in a 2 mM 1-lipoic acid n-hydroxysuccinimide ester (LPA) ethanol solution for 48 hours at 277 K. The electrodes were then rinsed thoroughly using absolute ethanol and blown dry under nitrogen before incubation in 200 μg/ml rmTLR1, 200 μg/ml rmTLR2 and 200 μg/ml ‘rmTLR1 and 2’ mixture for 72 hours at 277 K. The rmTLR1 and 2 mixture was prepared by mixing 200 μg/ml rmTLR1 and 200 μg/ml rmTLR2 with a volume ratio of 1:1. The final concentration of each component was 100 μg/ml and the total concentration of the combined TLR protein content was 200 μg/ml. Following the supplier's recommended conditions, all TLRs were prepared in PBS buffer (pH˜7.4). The electrodes were rinsed with an excess volume of Milli-Q water and blown dry under nitrogen. An ethanolamine-tris buffer solution was prepared by dissolving 1.2 g of ethanolamine and 0.121 g of Tris base in 20 mL of water, the pH was adjusted to 8.4 using hydrochloric acid. TLR-immobilized electrodes were incubated in the ethanolamine solution for one hour at room temperature in order to block any remaining unreacted LPA amine sites. The fabricated sensors with immobilized, standalone rmTLR3, rmTLR4/MD-2 and rmTLR5, used for the selectivity test, were prepared using the same protocol described above.
Pam3CSK4 was dissolved in 10 mM HEPES aqueous buffer at pH˜7.4. The blocked rmTLR biosensors were incubated in Pam3CSK4 at various concentrations for 20 minutes. The electrodes were always washed thoroughly with same HEPES buffer (pH˜7.4) after the incubation.
All electrochemical measurements were carried out using a cell with a three-electrode configuration in an enclosed Faraday cage. CV and EIS measurements were completed using a CHI-660b potentiostat (CH Instruments, Austin, Tex.). rmTLR-modified gold electrodes and platinum (Pt) wire were used as the working electrode and the counter electrode, respectively. A reference electrode (Ag/AgCl/3.0M KCl) and a salt bridge, filled with an agar and 1M KNO3 aqueous solution, were inserted to minimize the diffusion of chloride ions into the electrolyte solution. The agar solution was prepared by dissolving 2.0 grams of agar and 10.1 g KNOB in 100 mL of water. The CV and EIS electrolyte was made in a 10 mM HEPES aqueous buffer at pH˜7.4, which consisted of a 5 mM K4Fe(CN)6/5 mM K3Fe(CN)6 as a redox couple with 1M of NaClO4 as the supporting electrolyte. For consistency, the electrochemical measurements were carried out with open-circuit potentials. EIS experiments were conducted in the frequency range of 100,000 to 0.1 Hz with an amplitude of 5 mV. The experimental EIS curves were evaluated to determine the film resistance using ZSimpWin 2.0 software.

In another assay the target is T2, rmTLR5 (Mus musculus, UniProt Q9JLF7).
T2 construct: purchased
In words: Selectivity test, TLR5 sensor, EIS. Format: binding. To be noted: 10 μM. How it is done:
as §1, with “TLR-immobilized electrodes were incubated in the ethanolamine solution for one hour at room temperature in order to block any remaining unreacted LPA amine sites. The fabricated sensors with immobilized, standalone rmTLR3, rmTLR4/MD-2 and rmTLR5, used for the selectivity test, were prepared using the same protocol described above.” left out
All electrochemical measurements were carried out using a cell with a three-electrode configuration in an enclosed Faraday cage. […] The experimental EIS curves were evaluated to determine the film resistance using ZSimpWin 2.0 software. […]

T2 sequence (Q9JLF7 27-859): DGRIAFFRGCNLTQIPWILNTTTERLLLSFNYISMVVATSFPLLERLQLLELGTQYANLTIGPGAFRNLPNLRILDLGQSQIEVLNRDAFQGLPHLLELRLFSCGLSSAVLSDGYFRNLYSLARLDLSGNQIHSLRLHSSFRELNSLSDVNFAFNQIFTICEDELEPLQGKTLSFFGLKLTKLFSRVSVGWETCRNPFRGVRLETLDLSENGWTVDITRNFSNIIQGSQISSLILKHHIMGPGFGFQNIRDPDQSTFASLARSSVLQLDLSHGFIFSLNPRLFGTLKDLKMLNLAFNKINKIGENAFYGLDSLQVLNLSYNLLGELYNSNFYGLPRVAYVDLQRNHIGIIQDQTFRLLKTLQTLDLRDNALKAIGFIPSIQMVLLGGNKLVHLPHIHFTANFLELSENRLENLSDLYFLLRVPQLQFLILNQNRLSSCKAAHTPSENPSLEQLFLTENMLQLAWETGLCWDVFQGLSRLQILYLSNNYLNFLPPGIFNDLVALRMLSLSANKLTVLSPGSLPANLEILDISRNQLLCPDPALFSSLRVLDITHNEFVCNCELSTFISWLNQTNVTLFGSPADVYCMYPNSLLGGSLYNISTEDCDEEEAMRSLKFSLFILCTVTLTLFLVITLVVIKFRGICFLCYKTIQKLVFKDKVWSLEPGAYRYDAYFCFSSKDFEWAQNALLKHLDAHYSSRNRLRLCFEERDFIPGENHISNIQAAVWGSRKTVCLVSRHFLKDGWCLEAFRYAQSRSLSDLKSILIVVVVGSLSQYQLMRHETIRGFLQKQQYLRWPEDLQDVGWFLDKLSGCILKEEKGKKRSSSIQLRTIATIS

Turning to Pam3CSK4, the limit of detection on rmTLR1 is 10 µM. In addition, the “delta Rct %” value is on record as “not significant” at rmTLR1 (5 μM), 59±7% on rmTLR1 (25 μM) and 98±10% on rmTLR1 (50 μM). Moreover, the Rct at rmTLR1 (after 5 μM) was 10780 Ω · cm^2; on rmTLR1 (after 10 μM), 12760 Ω · cm^2; at rmTLR1 (after 25 μM), 16840 Ω · cm^2; at rmTLR1 (after 50 μM) it was 21010 Ω · cm^2. Further, the “electrochemical response (selectivity test)” value on rmTLR5 was “slight signal variations”.
